Values quoted from earlier work, collected in patent US20190167601A1, “APPARATUS AND METHOD FOR ZERO ORDER DRUG DELIVERY FROM MULTILAYER AMPHIPHILIC CO-NETWORKS” (The University of Akron, priority 2016, published 2019).
Structures can show the parent of a compound that is named as a salt.

Row | SMILES | maximum drug solubility in water [mg/mL]
1 | CC(C)OC(=O)CCC/C=C\C[C@@H]1[C@@H](CC[C@@H](O)CCc2ccccc2)[C@H](O)C[C@@H]1O [Latanoprost] | 8
2 | COc1c(N2C[C@@H]3CCCN[C@@H]3C2)c(F)cc2c(=O)c(C(=O)O)cn(C3CC3)c12 [Moxifloxacin Hydrochloride] | 0.168
